Assays:
[1] = molecular target: Dipeptidyl peptidase 2 (Homo sapiens, UniProt Q9UHL4); assay: Inhibition of QPP
[2] = molecular target: Dipeptidyl peptidase 9 (Homo sapiens, UniProt Q86TI2); assay: Inhibition of DPP9
[3] = molecular target: Dipeptidyl peptidase 8 (Homo sapiens, UniProt Q6V1X1); assay: Inhibition of DPP8

Measured: IC50

Dipeptidyl peptidase 8, sequence (Q6V1X1 whole entry): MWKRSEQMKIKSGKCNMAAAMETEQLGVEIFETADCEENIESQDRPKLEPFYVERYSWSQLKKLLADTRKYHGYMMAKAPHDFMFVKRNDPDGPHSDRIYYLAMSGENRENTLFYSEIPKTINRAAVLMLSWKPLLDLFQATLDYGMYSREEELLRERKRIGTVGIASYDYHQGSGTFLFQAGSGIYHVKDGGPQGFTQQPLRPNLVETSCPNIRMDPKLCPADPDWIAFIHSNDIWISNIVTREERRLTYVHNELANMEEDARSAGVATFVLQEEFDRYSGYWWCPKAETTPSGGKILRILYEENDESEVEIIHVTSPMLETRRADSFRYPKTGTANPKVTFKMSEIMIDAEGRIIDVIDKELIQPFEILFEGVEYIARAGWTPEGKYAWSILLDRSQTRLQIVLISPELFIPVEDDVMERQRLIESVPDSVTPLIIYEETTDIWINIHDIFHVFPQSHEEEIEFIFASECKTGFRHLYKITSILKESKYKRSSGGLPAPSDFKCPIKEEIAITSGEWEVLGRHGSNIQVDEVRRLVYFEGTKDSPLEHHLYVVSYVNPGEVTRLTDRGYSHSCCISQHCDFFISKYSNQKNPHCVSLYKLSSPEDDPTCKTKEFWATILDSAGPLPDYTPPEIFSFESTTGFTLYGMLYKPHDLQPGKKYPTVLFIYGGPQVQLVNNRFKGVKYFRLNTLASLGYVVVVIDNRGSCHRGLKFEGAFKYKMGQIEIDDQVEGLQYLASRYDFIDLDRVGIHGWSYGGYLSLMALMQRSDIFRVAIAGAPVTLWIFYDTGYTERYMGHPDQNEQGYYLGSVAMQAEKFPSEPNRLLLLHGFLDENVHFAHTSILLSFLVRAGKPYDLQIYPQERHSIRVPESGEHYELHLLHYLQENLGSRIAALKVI
Dipeptidyl peptidase 9, sequence (Q86TI2 whole entry): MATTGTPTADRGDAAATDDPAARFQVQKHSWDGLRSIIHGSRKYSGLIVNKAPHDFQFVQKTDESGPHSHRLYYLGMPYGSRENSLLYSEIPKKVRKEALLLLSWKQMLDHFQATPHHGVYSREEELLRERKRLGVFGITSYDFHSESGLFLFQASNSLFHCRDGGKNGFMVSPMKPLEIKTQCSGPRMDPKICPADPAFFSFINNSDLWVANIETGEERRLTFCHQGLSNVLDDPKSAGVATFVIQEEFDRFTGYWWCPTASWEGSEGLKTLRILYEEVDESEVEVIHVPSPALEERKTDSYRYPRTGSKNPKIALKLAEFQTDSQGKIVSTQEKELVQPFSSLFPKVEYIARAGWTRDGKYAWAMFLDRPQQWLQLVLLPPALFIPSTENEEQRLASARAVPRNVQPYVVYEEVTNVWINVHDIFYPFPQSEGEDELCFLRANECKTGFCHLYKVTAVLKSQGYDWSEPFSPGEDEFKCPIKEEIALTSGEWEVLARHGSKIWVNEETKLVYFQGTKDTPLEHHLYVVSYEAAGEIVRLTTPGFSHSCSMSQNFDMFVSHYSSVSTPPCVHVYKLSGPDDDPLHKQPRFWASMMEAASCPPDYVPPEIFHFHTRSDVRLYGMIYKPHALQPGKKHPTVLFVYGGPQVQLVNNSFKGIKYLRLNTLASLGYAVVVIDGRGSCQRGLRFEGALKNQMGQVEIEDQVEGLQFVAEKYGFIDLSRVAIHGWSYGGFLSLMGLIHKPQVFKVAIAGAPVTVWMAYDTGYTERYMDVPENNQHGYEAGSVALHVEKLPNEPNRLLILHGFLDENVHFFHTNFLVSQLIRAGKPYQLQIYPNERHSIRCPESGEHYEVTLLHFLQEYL

N[C@H]1C[C@H](N2CCn3c(nnc3C(F)(F)F)C2)CC[C@@H]1c1cc(F)c(F)cc1F
> 100 µM: all assays above

Reference: ChEMBL document CHEMBL1147994 (Bioorg Med Chem Lett, 2007)
